Results published in patent publication US7425579B2, “Methods for inhibiting activity of polyamine transporters” (Universite Laval, priority 1998, dated 2008).
Like-named read-outs stand apart in the source and are kept apart here.

Experiments:
[1] = test system: mammalian polyamine carrier; assay: Determination of polyamine uptake activity: inhibition of diamine and polyamine transport in T-47D cells; format: cell-based, human; conditions: for Ki: mean±SD
Protocol: The rate of diamine and polyamine transport was determined in T-47D and ZR-75-1 cells incubated in serum-free RPMI 1640 medium as previously described (U.S. Pat. No. 6,083,496; Covassin et al. (1999) Bioorg. Med. Chem. Lett. 9, 1709-1714), using 20 μM [^3H]putrescine (179 Ci/mol), 5 μM [^3H]spermidine (246 Ci/mol) and 3 μM [^14C]spermine (300-400 mCi/mol) respectively, as substrates for a 20-min assay period. Uptake activity was expressed per amount of DNA as fluorometrically determined using 3,5-diaminobenzoic acid (Simard et al. (1990) Endocrinology 126, 3223-3231). Kinetic parameters of polyamine transport inhibition for the transport antagonists were determined by Lineweaver-Burke analysis of uptake activity in the presence of 0.1 μM [^3H]putrescine, 0.03 μM [^3H]spermidine, and 0.01 μM [^14C]spermine plus increasing concentrations of nonradioactive substrate. For competitive inhibitors, Ki values were estimated by iterative curve fitting for sigmoidal equations describing transport rates in the presence of increasing concentrations of antagonist, using the Cheng-Prusoff equation for competitive inhibition (U.S. Pat. No. 6,083,496).
The ability of BSD and BNSD compounds to inhibit uptake of the main natural substrates of the mammalian polyamine carrier, namely putrescine, spermidine and spermine, was evaluated using T-47D human breast cancer cells (Table 1).
Data are presented as the mean±SD of at least two independent determinations of IC50 values, each based on triplicate determinations of uptake velocity at increasing inhibitor concentrations.
The potency of the polyamines and their xylylated dimers as competitive inhibitors of spermidine transport was evaluated in the T-47D human breast cancer cell line (Table 2).

[2] = test system: CHO-K1, Jurkat, L1210, MDA-MB-231, ZR-75-1 and MCF-7 cells; assay: Reversal of DFMO-induced cytostasis by exogenous spermidine in a variety of mammalian cell lines; format: cell-based; conditions: most cell lines; concentrations as low as
Protocol: FIGS. 5A, 5B, 5C, 5D, 5E and 5F are graphs representing that a compound used in a method according to a preferred embodiment antagonizes rescue of DFMO-induced cytostasis by exogenous spermidine. In particular, CHO-K1 (A), Jurkat (B), L1210 (C), MDA-MB-231 (D), ZR-75-1 (E) and MCF-7 cells (F) were grown to near confluency or saturation (for 4 to 11 d according to the cell line considered) with the indicated concentrations of spermidine in medium containing 1 mM aminoguanidine, in the presence of DFMO (●), BNSD-X (□), DFMO plus BNSD-X (▪), or in the absence of either agent (∘), and total DNA content per culture was then determined. The optimal concentration of either DFMO (1 to 5 mM) or BNSD-X (50 or 100 μM) was used for the each cell line as determined in pilot experiments. Data are presented as the mean±SD for triplicate cultures from one out of at least three identical experiments for each cell line;
(§1) To determine the ability of polyamine transport antagonists to potentiate DFMO-induced inhibition of cell proliferation in the presence of exogenous polyamines, cells were grown for the indicated period in growth medium supplemented with 1 mM aminoguanidine, and either DFMO (1 to 5 mM), the indicated transport inhibitor (50 or 100 μM), or the combination thereof, as well as increasing concentrations of spermidine (0.1 to 300 μM). Fresh medium was added every other day, and cell mass was determined at various time points during the period of exponential growth, or at the end of the experimental period. For the latter experiments, the FBS supplement was replaced with dextran-coated charcoal-treated FBS (5%, v/v) plus 0.5 μg/ml insulin in the case of T-47D, ZR-75-1 and MCF-7 cells (U.S. Pat. No. 6,083,496).

T-47D cells [3] = assay: Reversal of DFMO-induced cytostasis by exogenous spermidine in T-47D cells; format: cell-based, human; conditions: T-47D cells with extracellular spermidine and DFMO
Protocol: FIGS. 6A, 6B, 6C and 6D are graph showing that antagonism of DFMO-induced cytostasis by exogenous spermidine depends on the polyamine and linker structure of the compounds used in a method according to a preferred embodiment of the invention. In particular, T-47D cells were grown for 8-9 d with the indicated concentrations of spermidine in medium containing 1 mM aminoguanidine, in the presence of DFMO (●), transport inhibitor (□), DFMO plus transport inhibitor (▪), or in the absence of either agent (∘), and total DNA content per culture was then determined. Panels A, B, C, and D describe the effect of BNSD-X, BSD-X, BNSD-3 and BSD-3, respectively. Data are presented as the mean±SD for triplicate cultures from one out of at least two identical experiments;
(§2) FIGS. 8A and 8B are graphs representing the time course of the effect of a compound used in a method according to a preferred embodiment of the invention on rescue of DFMO-induced cytostasis by exogenous spermidine. In particular, at time zero, T-47D (panel A) or CHO-K1 (panel B) were seeded at 1×10^4 or 5×10^3 cells/well, respectively, in medium containing 1 mM aminoguanidine, plus either 0.3 μM spermidine (Spd, ●), 2 mM DFMO (□), Spd+DFMO (▪), 50 μM (A) or 100 μM (B) BNSD-X (Δ), BNSD-X+Spd (▴), BNSD-X+DFMO (□), BNSD-X+Spd+DFMO (▾), or vehicle only (∘). At the indicated time, total DNA content/well was determined. Data are presented as the mean±SD for triplicate cultures from one representative experiment;
as §1

CHO-K1 cells = assay: Reversal of DFMO-induced cytostasis by exogenous spermidine in CHO-K1 cells; format: cell-based, Chinese hamster; conditions: DFMO-treated CHO-K1 cells with extracellular spermidine; data not shown
Protocol: as §2, §1

T-47D cells [4] = assay: Effect of inhibitors on T-47D cell proliferation (DNA content); format: cell-based, human
Protocol: FIGS. 3A and 3B are graphs showing the effect compounds used in a method according preferred embodiment of the present invention, on cell proliferation. In particular, they relate to the effect of selected BSD and BNSD derivatives on T-47D cell proliferation. Cells were incubated for 9 d with the indicated concentrations of BSD-2 (∘), BNSD-4 (●), BSD-4 (□), BNSD-6 (▪), BSD-10 (Δ), BSD-4-ene (▴) and BSD-4-yne (▾) in medium containing 1 mM aminoguanidine, and total DNA content per culture was then determined. B, Effect of BNSD-X (N,N,N′,N′-tetrakis-(3-aminopropyl)-p-diaminoxylene) on cell proliferation in various mammalian cell lines. Jurkat (∘), LAN-1 (●), L1210 (□), T-47D (▪), ZR-75-1 (Δ) and MDA-MB-231 (▴) cells were grown to near confluency or saturation (for 4 to 11 d according to the cell line considered) with the indicated concentrations of BNSD-X in the presence of 1 mM aminoguanidine, and total DNA content per culture was then determined. Data are given as the mean±SD for triplicate cultures from one out of at least two identical experiments;
FIGS. 4A and 4B are graphs showing how compounds used in a method according to a preferred embodiment are differentially sensitive to degradation by BSAO (bovine serum amine oxidase). In particular, T-47D cells were incubated for 9 d with the indicated concentrations of BSD-X (∘), BNSD-X (●), BSD-3 (□) or BNSD-3 (▪) in the absence (A) or presence of 1 mM aminoguanidine (B), and total DNA content per culture was then determined. Data are presented as the mean±SD for triplicate cultures from one representative experiment;
The effect of transport inhibitors on cell proliferation was evaluated by determination of cell number (L1210, Jurkat) using electronic sizing with a Model ZM Coulter counter (Coulter Electronics, Hialeah, Fla.), or DNA content per culture (for all other cell lines) with the 3,5-diaminobenzoic acid assay. […] Cytotoxicity of the inhibitors was determined in the presence or absence of aminoguanidine, and was confirmed by a trypan blue exclusion assay.

[5] = T-47D breast cancer cells, read-out: Ki, inhibition of [3H]putrescine uptake
[6] = T-47D breast cancer cells, read-out: Ki, inhibition of [3H]spermidine uptake
[7] = T-47D breast cancer cells, read-out: Ki, inhibition of [14C]spermine uptake

Compound | Km ([1]; T-47D breast cancer cells, substrate itself, read-out: Km for [3H]spermidine uptake) [µM] | Km ([1]; T-47D cells, Lineweaver-Burke analysis, 0.01-300 μM substrate, read-out: Km for spermidine uptake (Table 2)) [µM] | spermidine concentration that completely counteracts DFMO-induced cytostasis [2] [µM] | Ki [1, 5] [µM] | Ki [1, 6] [µM] | Ki [1, 7] [µM] | effect on spermidine-mediated reversal of DFMO-induced growth inhibition, T-47D (T-47D cells [3]) | effect on spermidine-mediated reversal of DFMO-induced growth inhibition, CHO-K1 (CHO-K1 cells) | times less potent than BSD-3 as a spermidine transport antagonist ([1]; T-47D cells) | cytotoxicity in the absence of aminoguanidine (T-47D cells [4])
NCCCCNCCCN [Spermidine, reference compound] | 4.4 ± 0.9 | 4.4 ± 0.9 | 0.3 to 1 |  |  |  |  |  |  | 
NCCCCN(CCCN)Cc1ccc(CN(CCCN)CCCCN)cc1 [28b] |  |  |  | 0.28 ± 0.02 | 2 ± 0.2 | 2.9 ± 0.6 | did not increase the range of spermidine concentrations able to reverse inhibition of cell proliferation by DFMO | afforded increased resistance to exogenous spermidine |  | 
NCCCN(CCCN)CCCN(CCCN)CCCN [19a] |  |  |  | 1.6 ± 0.4 | 8.3 ± 0.8 | 6.2 ± 1.7 | exhibited no activity | exhibited no activity | about 5 times | considerably more cytotoxic than their spermidine-like homologs
